In publication PMC12527173, “Cytotoxic, anti-inflammatory, antioxidant, and anti-glyoxalase-I evaluation of chelating substances: In silico and in vitro study” (PLOS One, 2025):
Where two headings read alike, the source gives them in different places.

How the values were obtained:
[1] = target: T1, human recombinant Glo-I enzyme (rhGlo-I) (Homo sapiens, UniProt Q04760); parameters: method as in PMID 34264188; conditions: prior publication ref 87; read-out: IC50 against Glo-I; cited from earlier work
T1 construct: N-terminal Met and 6-His tag (N); purchased R&D Systems; host or cells: E. coli
T1 sequence (Q04760 2-184 limits assumed): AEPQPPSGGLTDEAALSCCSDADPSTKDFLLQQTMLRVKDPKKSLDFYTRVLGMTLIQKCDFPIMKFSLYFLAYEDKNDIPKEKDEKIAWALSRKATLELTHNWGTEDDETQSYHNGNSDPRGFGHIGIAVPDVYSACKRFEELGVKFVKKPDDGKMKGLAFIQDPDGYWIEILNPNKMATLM

[2] = system: CACO2 colorectal cancer cell line; test: SRB cytotoxicity assay, CACO2; format: cell-based; conditions: Homo sapiens, Caco-2, 72 h incubation, n = 12, read-out: Cytotoxicity (as of %Control) IC50 value CACO2
Method: (§1) The cancer cell lines were cultured in DMEM supplemented with 10% FBS (Bio Whittaker, Verviers, Belgium), HEPES Buffer (10 mM), gentamicin (50 µg/mL), L-glutamine (100 μg/mL), streptomycin ([…]), penicillin (100 µg/mL), and 4-(2-hydroxyethyl)-1-piperazineethanesulfonic acid (HEPES) Buffer (Sigma, St. Luis, MO, USA). The Sulforhodamine B used was obtained from Santa Cruz Biotechnology, Inc. in Texas, USA. […] Periodontal ligament fibroblasts (PDL) were utilized to assess specific cytotoxicity. Cancer cell lines that have survived offer several benefits. They provide a consistent and uninterrupted source of cells, so bypassing any ethical concerns related to the use of human tissue. Additionally, they are cost-effective. The cytotoxicity levels were assessed using the Sulforhodamine B (SRB) colorimetric assay, provided by Santa Cruz Biotechnology, Inc. in Texas, USA. The Spectro Scan 80D UV-VIS spectrophotometer, manufactured by Sedico Ltd. in Nicosia, Cyprus, was employed for this cytotoxicity screening. The cells were co-incubated with substances or a reference agent at various doses ranging from 5 to 200 μg/mL. […] The reduction in cell viability was analyzed by plotting Dose-response curves and expressing the data as a percentage of the control optical density. The IC50 values were obtained using regression analysis.

[3] = system: HeLa uterine cervix adenocarcinoma cell line; test: SRB cytotoxicity assay, HeLa; format: cell-based; conditions: Homo sapiens, 72 h incubation, n = 12, read-out: Cytotoxicity (as of %Control) IC50 value Hela cervix malignancy
Method: as §1

[4] = system: A549 lung cancer cell line; test: SRB cytotoxicity assay, A549; format: cell-based; conditions: Homo sapiens, 72 h incubation, n = 12, read-out: Cytotoxicity (as of %Control) IC50 value A549 lung malignancy
Method: as §1

[5] = system: A375 human skin cancer cell line; test: SRB cytotoxicity assay, A375; format: cell-based; conditions: A-375, 72 h incubation, n = 12, read-out: Cytotoxicity (as of %Control) IC50 value A375 skin melanoma
Method: as §1

[6] = SRB cytotoxicity assay, normal PDL fibroblasts; format: cell-based; conditions: normal periodontal ligament (PDL) fibroblasts, 72 h incubation, 0.1–200 µM range, read-out: Cytotoxicity (as of %Control) IC50 value PDL fibroblasts
Method: as §1

[7] = DPPH free radical scavenger assay; conditions: DPPH radical scavenging; n = 12
Text: This approach relies on the reduction of the radicals, which causes a change in colour from oxidized purple to reduced yellow. Primarily, Diphenyl-2-picryl-hydrazyl (DPPH) is reduced in a solution of methanol (MeOH) when a chemical that donates hydrogen is present. This reduction is due to the creation of the non-radical form DPPH-H. The alteration in colour can be precisely assessed by employing a spectrophotometer within the wavelength range of 515–520 nm. Unlike other assays for radical scavenging, the DPPH radical is stable and yields consistent spectroscopic data. A 0.2 mM DPPH solution was diluted with MeOH and then combined with treatment compounds and ascorbic acid in a 1:1 concentration ratio using a 96-well plate. […] The solution was then incubated for one hour, isolated from light. Subsequently, the alteration in absorbance at a wavelength of 517 nm was quantified using a microplate reader manufactured by Bio-Tek Instrument in the United States. Ascorbic acid served as a strong and traditional benchmark for comparing the effectiveness of radical scavenging agents. The DPPH radical scavenging activity inhibition was calculated using the following equation, where A denotes photometric absorbance: The formula to calculate the percentage difference between a control and a sample is: (A control – A sample)/ A control x 100% [71, 72].

[8] = system: Breast cancer cell line MCF7; test: SRB cytotoxicity assay, MCF7; format: cell-based; conditions: Homo sapiens, 72 h incubation, n = 12, read-out: Cytotoxicity (as of %Control) IC50 value MCF7 mammary malignancy
Method: as §1

[9] = system: SW620 colorectal cancer cell line; test: SRB cytotoxicity assay, SW620; format: cell-based; conditions: Homo sapiens, SW-620, 72 h incubation, n = 12, read-out: Cytotoxicity (as of %Control) IC50 value SW620
Method: as §1

[10] = system: PANC1 pancreatic cell line; test: SRB cytotoxicity assay, PANC1; format: cell-based; conditions: Homo sapiens, PANC-1, 72 h incubation, n = 12, read-out: Cytotoxicity (as of %Control) IC50 value PANC1
Method: as §1

[11] = system: HT-29 colorectal cancer cell line; test: SRB cytotoxicity assay, HT29; format: cell-based; conditions: Homo sapiens, 72 h incubation, n = 12, read-out: Cytotoxicity (as of %Control) IC50 value HT29
Method: as §1

[12] = system: T47D breast cancer cell line; test: SRB cytotoxicity assay, T47D; format: cell-based; conditions: Homo sapiens, 72 h incubation, n = 12, read-out: Cytotoxicity (as of %Control) IC50 value T47D mammary malignancy
Method: as §1

[13] = system: LPS-primed RAW 264.7 murine macrophages (nitrite / iNOS); test: Anti-inflammatory (nitrite) determination in LPS-primed macrophages; format: cell-based; conditions: Mus musculus
Method: The RAW 264.7 mouse macrophage cell line (ATCC® TIB-71) was cultivated in high glucose DMEM with 10% foetal bovine serum (FBS), 100 U/mL penicillin, 100 μg/mL streptomycin, and 100 μg/mL L-glutamate. The cells were incubated at 37°C in a humidified environment with 95% air and 5% CO2. Confluent macrophages (2 x 10^5/well) were cultured with lipopolysaccharide (LPS; 20 μg/mL; Sigma, St. Luis, MO, USA) and indomethacin (25–200 μg/mL) as the positive control, along with various concentrations (5–200 μg/mL) of treatment compounds. The cells were incubated for 24 hours. 100 μL of Griess reagent were combined with 100 μL portions of cell culture medium and left to incubate at room temperature for 10 minutes. The absorbance at a wavelength of 550 nm was measured using a microplate reader, namely the Spectro Scan 80D UV-VIS spectrophotometer manufactured by Sedico Ltd. in Nicosia, Cyprus. The nitrite concentration was assessed by comparing it to a standard curve of sodium nitrite. A cytotoxicity protocol using SRB was conducted to assess the impact of the test substances under study on RAW 264.7 viability.

[14] = system: HCT116 colorectal cancer cell line; test: SRB cytotoxicity assay, HCT116; format: cell-based; conditions: Homo sapiens, HCT-116, 72 h incubation, n = 12, read-out: Cytotoxicity (as of %Control) IC50 value HCT116
Method: as §1

[15] = system: Human PC3 prostate cancer cell line; test: SRB cytotoxicity assay, PC3; format: cell-based; conditions: 72 h incubation, n = 12, read-out: Cytotoxicity (as of %Control) IC50 value PC3 prostate malignancy
Method: as §1

[16] = system: SW480 colorectal cancer cell line; test: SRB cytotoxicity assay, SW480; format: cell-based; conditions: Homo sapiens, 72 h incubation, n = 12, read-out: Cytotoxicity (as of %Control) IC50 value SW480
Method: as §1

Row | Structure (SMILES) | IC50 [1] [µM] | IC50 [2] [µM] | IC50 [3] [µM] | IC50 [4] [µM] | IC50 [5] [µM] | IC50 at 72 h [6] [µM] | IC50 [7] [µM] | IC50 [8] [µM] | IC50 [9] [µM] | IC50 [10] [µM] | IC50 [11] [µM] | IC50 [12] [µM] | IC50 ([13]; RAW264.7, 24 h, read-out: iNOS- IC50 value) [µM] | IC50 ([13]; RAW264.7, read-out: IC50, ability to reduce inflammation) [µM] | IC50 [14] [µM] | IC50 [15] [µM] | IC50 [16] [µM]
1 | C[C@H](Cc1ccc(O)c(O)c1)[C@@H](C)Cc1ccc(O)c(O)c1 [4,4’-((2R,3S)-2,3-dimethylbutane-1,4-diyl)bis(benzene-1,2-diol)] | 0.0365 | – | – | – | – | – | – | – | – | – | – | – | – | – | – | – | –
2 | O=c1c(O)c(-c2cc(O)c(O)c(O)c2)oc2cc(O)cc(O)c12 [Myricetin, reference compound] | – | 106.5 ± 0.6 | 35.8 ± 4.4 | 27.5 ± 4.47 | 51.7 ± 4.1 | > 200 | 70.7 ± 11.6 | 73 ± 0.78 | 42.8 ± 0.78 | 198 ± 43 | 32.6 ± 1.06 | 29.8 ± 2.6 | 0.07 ± 0.01 | 0.05 | 44.7 ± 2.14 | 65.4 ± 1.84 | 88.9 ± 14.1
